The results in this text go back to patent publication US20100292334A1, “N-ACYLHYDRAZONE DERIVATIVES USEFUL AS MODULATORS OF NICOTINIC ACETYLCHOLINE RECEPTORS” (NeuroSearch A/S, priority 2007, published 2010).

The target of data set [1] is T1, wild-type nAChR α7 receptors (Homo sapiens, UniProt P36544).
T1 construct: expressed in transfected cells; host or cells: Xenopus laevis oocytes
Kind of data set: Positive modulation of nAChR α7 receptors expressed in Xenopus laevis oocytes, two-electrode voltage clamp. The data set is classed as cell-based. As to the method: In this example the positive modulation of wild-type nAChR α7 receptors by Compound 3 (i.e. 4-Hydroxy-3-methoxy-benzoic acid [3-methyl-4-oxo-4H-naphthalen-(1E)-ylidene]-hydrazide; FIGS. 1A and 1B) was determined using nAChR α7 receptors heterologously expressed in Xenopus laevis oocytes.
The electrical current through the nAChR α7 channel was measured using conventional two-electrode voltage clamp and nAChR α7 currents were activated by applying pulses of agonist-containing solution onto the nAChR α7 expressing oocyte.
In brief, the oocytes were placed in a recording chambers and continuously super-fused with an Oocyte Ringer (OR) solution containing 90 mM NaCl, 2.5 mM KCl, 2.5 mM CaCl2, 1 mM MgCl2 and 5 mM HEPES (pH adjusted to 7.4). The oocytes were clamped at −60 mV and currents were induced by applying 20 s pulses of 100 μM acetylcholine dissolved in OR. The intervals between the acetylcholine applications were 5 minutes, during which the oocytes were washed with OR. The first three applications were control applications to insure a constant response level of 100 μM acetylcholine.
The positive modulation in the presence of Compound 3 was calculated as (test-control)/control*100% and the concentration response curve for this positive modulation was fitted to the sigmoidal logistic equation: I=Imax/(1+(EC50/[compound])n), where Imax represents the maximal modulation of the control response, EC50 is the concentration causing a half maximal response, and n is the slope coefficient.

T1 sequence (P36544 23-502): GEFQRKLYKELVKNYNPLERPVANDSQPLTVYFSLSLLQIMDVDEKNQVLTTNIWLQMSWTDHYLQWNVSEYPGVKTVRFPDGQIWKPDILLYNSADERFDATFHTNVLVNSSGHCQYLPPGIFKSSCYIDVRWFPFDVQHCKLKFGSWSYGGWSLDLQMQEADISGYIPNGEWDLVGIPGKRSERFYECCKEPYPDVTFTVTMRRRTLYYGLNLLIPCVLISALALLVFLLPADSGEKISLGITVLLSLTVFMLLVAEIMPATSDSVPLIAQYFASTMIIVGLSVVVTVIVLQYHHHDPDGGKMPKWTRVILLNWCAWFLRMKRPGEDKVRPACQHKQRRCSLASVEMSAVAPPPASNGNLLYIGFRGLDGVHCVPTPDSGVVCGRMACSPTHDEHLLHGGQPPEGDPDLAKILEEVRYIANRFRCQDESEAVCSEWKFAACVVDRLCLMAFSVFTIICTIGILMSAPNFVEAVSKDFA

`COc1ccc(C(=O)N/N=C2\C=C(C)C(=O)c3ccccc32)cc1` [Compound 2, 4-Methoxy-benzoic acid [3-methyl-4-oxo-4H-naphthalen-(1E)-ylidene]-hydrazide] gave a melting point of 252.9 to 253.4 °C.
Take `CC1=C/C(=N/NC(=O)c2ccc(C#N)cc2)c2ccccc2C1=O` [Compound 6, 4-Cyano-benzoic acid [3-methyl-4-oxo-4H-naphthalen-(1Z)-ylidene]-hydrazide]: the melting point was in the range of 290.3 to 292.7 °C.
For `COc1cc(C(=O)N/N=C2\C=C(C)C(=O)c3ccccc32)ccc1O` [Compound 3, 4-Hydroxy-3-methoxy-benzoic acid [3-methyl-4-oxo-4H-naphthalen-(1E)-ylidene]-hydrazide], the melting point was in the range of 254.8 to 255.6 °C. In data set [1] (0.01-31.6 μM applied 30 s before and during 100 μM acetylcholine), the “effect on the acetylcholine-induced current amplitude” value is recorded as “robust increase”. For the same compound, the “Imax (maximal modulation of the control response)” value in data set [1] (Xenopus laevis oocytes clamped at −60 mV, 100 μM acetylcholine, (test-control)/control*100%, fitted maximum) is on record as 98%. Moreover, the EC50 in data set [1] (Xenopus laevis oocytes clamped at −60 mV, currents induced by 100 μM acetylcholine, compound 0.01-31.6 μM applied 30 s before and during acetylcholine, read-out: EC50 (concentration causing a half maximal response) of positive modulation) was 490 nM.
In the case of `CC(=O)Nc1ccc(C(=O)N/N=C2\C=C(C)C(=O)c3ccccc32)cc1` [Compound 5, N-{-4-[3-Methyl-4-oxo-4H-naphthalen-(1E)-ylidene-hydrazinocarbonyl]-phenyl}-acetamide], the melting point fell in the range of 280.5 to 280.8 °C.
For the compound `CC1=C/C(=N\NC(=O)c2ccc3[nH]ccc3c2)c2ccccc2C1=O` [Compound 4, 1H-Indole-5-carboxylic acid [3-methyl-4-oxo-4H-naphthalen-(1E)-ylidene]-hydrazide], the melting point was in the range of 251.9 to 252.9 °C.
In turn, `CC1=C/C(=N\NC(=O)c2ccc(O)cc2)c2ccccc2C1=O` [Compound 1, 4-Hydroxy-benzoic acid [3-methyl-4-oxo-4H-naphthalen-(1E)-ylidene]-hydrazide] displayed a melting point of 274.3 to 275.7 °C.
